Measured values from US3975399A, “1,5-Disubstituted-2-pyrrolidinones, -3-pyrrolin-2-ones, and -4-pyrrolin-2-ones” (E. I. Du Pont de Nemours and Company, priority 1974, dated 1976).
≈ marks a conversion by molar mass, not a printed value.

Key:
[1] = tested on: rat uterine smooth muscle; test: Contraction of rat uterine smooth muscle
bronchial smooth muscle = conditions: cited from earlier work
[2] = tested on: PGE1-induced smooth muscle contractions; test: Antagonism of PGE1-induced smooth muscle contractions; conditions: read-out: antagonizes PGE1-induced smooth muscle contractions, concentration for 50% inhibition
inflammation = test: Topical and injectable antiinflammatory activity (general statement); type: in vivo
[3] = tested on: croton oil-induced inflammation of rat ears; test: Topical antiinflammatory activity against croton oil-induced inflammation of rat ears; type: in vivo; conditions: 2-3 mg/ear
[4] = tested on: croton oil-induced inflammation of mouse ears; test: Topical antiinflammatory activity against croton oil-induced inflammation of mouse ears; type: in vivo; conditions: 2-3 mg/ear
[5] = tested on: adjuvant-induced arthritis in rats; test: Systemic antiinflammatory activity against adjuvant-induced arthritis in rats; type: in vivo, rat; conditions: intraperitoneal injection, 50 mg/kg
[6] = tested on: gastrin-induced gastric acid secretion; test: Gastrin-induced gastric acid secretion; conditions: in vivo
[7] = tested on: histamine-induced bronchoconstriction; test: Histamine-induced bronchoconstriction; conditions: in vivo

CCCCC[C@H](O)/C=C/[C@H]1[C@H](O)CC(=O)[C@@H]1CCCCCCC(=O)O [PGE1, reference compound]
contraction of rat uterine smooth muscle (in words) ([1]; comparator for compound 5): contracts rat uterine smooth muscle | effect on the contracting action of PGF2α (bronchial smooth muscle): reverses or antagonizes

CCCCCC(O)/C=C/C1CCC(=O)N1CCCCCCC(=O)OC(C)(C)C (stereo not drawn) [Compound 4, Tert-butyl 7-[2-Oxo-5-(3-hydroxy-1-oct-1-enyl)-1-pyrrolidinyl]heptanoate]
antagonism of the contracting action of compound 5 ([1]; rat uterine smooth muscle, compound 5-induced contraction): is antagonized in this action | IC50 [2]: 10 µg/mL (≈ 25.3 µM) | active as injectable antiinflammatory agent (inflammation): active | active as topical antiinflammatory agent (inflammation): active | topical antiinflammatory activity [3]: also active, though slightly less so | topical antiinflammatory activity [4]: also active, though slightly less so | systemic antiinflammatory activity [5]: also active, though slightly less so

CCCCC[C@H](O)/C=C/[C@@H]1[C@@H](C/C=C\CCCC(=O)O)[C@@H](O)C[C@H]1O [PGF2 α]
contracting action (bronchial smooth muscle): contracting action

CCCCCC(O)/C=C/C1CCC(=O)N1CCCCCCC(=O)O (stereo not drawn) [Compound 5, 7-[2-Oxo-5-(3-hydroxy-1-oct-1-enyl)-1-pyrrolidinyl]-heptanoic Acid]
contracts rat uterine smooth muscle (concentration) ([1]; in the same way as PGE1): 50 ng/mL | active as injectable antiinflammatory agent (inflammation): active | active as topical antiinflammatory agent (inflammation): active | topical antiinflammatory activity [3]: has shown activity | topical antiinflammatory activity [4]: has shown activity | systemic antiinflammatory activity [5]: has shown activity | activity in cutting off gastrin-induced gastric acid secretion [6]: has shown activity | activity as antagonist to histamine-induced bronchoconstriction [7]: has shown activity
